According to patent US20250296959A1, “B7-H3 TARGETING PEPTIDES AND CONSTRUCTS THEREOF” (Mariana Oncology Inc., priority 2024, published 2025):
Read-outs that look alike come from different tables or passages of the source. Starred links: 1 amine or outer side, 2 acyl side, 3 side chain; linkers in the order of their positions; H or OH if unused. Positions of bridges follow the written chain, without caps; N, C: chain ends. Non-standard residues stand in square brackets, D forms with d. Residues, ends and D or L forms follow the SMILES beside them. Groups on a side chain read outwards from the residue. *: point of attachment. X2 = O=C(O)CN1CCN(CC(=O)O)CCN(CC(=O)NCCOCCOCCOCCOCC(=O)*)CCN(CC(=O)O)CC1; Ala(piperidin-4-yl) = O=C([C@H](CC1CCN([*:3])CC1)N[*:1])[*:2]; DOTA = O=C(O)CN1CCN(CC(=O)O)CCN(CC(=O)*)CCN(CC(=O)O)CC1; Phe(4-COOH) = N[C@@H](Cc1ccc(C(=O)O)cc1)C(=O)O; Trp(5-F) = N[C@@H](Cc1c[nH]c2ccc(F)cc12)C(=O)O; PEG8 = NCCOCCOCCOCCOCCOCCOCCOCCOCCC(=O)O; 1Nal = N[C@@H](Cc1cccc2ccccc12)C(=O)O; Ala(4-THP) = N[C@@H](CC1CCOCC1)C(=O)O; Val(3-OH) = CC(C)(O)[C@H](N)C(=O)O; 4Pal = N[C@@H](Cc1ccncc1)C(=O)O; PEG4 = NCCOCCOCCOCCOCCC(=O)O; Tle = CC(C)(C)[C@H](N)C(=O)O; hLeu = CC(C)CC[C@H](N)C(=O)O

Tests used:
Calu-6 cell line [1] = assay: Net internalization of [177Lu]Lu-labeled peptide in Calu-6 cells; type: cell-based, Human; settings: 1 hour, 37° C., glycine pH 2.5 acid wash
Method: (§1) [^177Lu]LuCl3 was received from venders in HCl solution. For every mCi of [^177Lu]LuCl3 added to the reaction vial (1.5 mL Eppendorf vial), ammonium acetate buffer (0.2 M, pH 4.9, 100 μL, containing 1% w/v ascorbic acid and 6% v/v ethanol) and peptide conjugate (1 nmol) was added. The pH of the solution was determined to be approximately 5 by using pH strips. The reaction vial was incubated at 80° C., 700 RPM for 17-20 minutes. A sample from the reaction was analyzed by RP-HPLC using an Agilent Infinity II 1260 HPLC to determine reaction completion and radiochemical purity. HPLC conditions: Waters XBridge BEH C18 Column, 130 Å, 3.5 μm, 4.6 mm×250 mm; mobile phase: Solvent A=water (with 0.1% formic acid), solvent B=acetonitrile (with 0.1% formic acid). Gradients: 25-45% B in 10 minutes, 45-65% B in 12 minutes, 65-90% in 6 minutes at a flow rate of 0.5 mL/minute. Required amounts of the product were formulated in 1% PBSA for cell studies.
(§2) The study was conducted using Calu-6 cell line (Table 8)
(§3) Adherent cell studies: The cells were cultured in appropriate culture media (20 mL) in tissue culture treated T150 flasks at 37° C. and 5% CO2. Adherent cells were detached (60-70% confluent) using 5 mL Versene at 37° C. for 3 minutes. After confirming the viability using countess and count of detached cells using Trypan blue, the cells were centrifuged at 4° C. for 5 minutes (1,000 revolutions per minute). The cell pellet obtained was washed once with PBS and resuspended in 1% PBSA to obtain the desired cell concentration (5 million cells/mL).
Net internalization: The resuspended cells in 300 μl of 1% PBSA and counted in the gamma counter as “bound fraction” were collected in 1.5 mL Eppendorf tube and pelleted. The pelleted cells were incubated with 300 μl of 50 mM Glycine pH=2.5 for 3 minutes and then pelleted discarding the supernatant. This process was repeated one more time. The pelleted cells were washed with 300 μl of cold 1% PBSA and then resuspended in 300 μl 0.3 M NaOH. This was counted in the gamma counter as “internalized fraction”.
(§4) Calu-6 Cells are Human-Derived, Non-Engineered Lung Cancer Cell that Express B7-H3.

Calu-6 cell line [2] = assay: Cell associated (bound) fraction of [177Lu]Lu-labeled peptide in Calu-6 cells; type: cell-based, Human; settings: 1 hour, 37° C.
Method: as §1, §2, §3
Cell associated fraction: Cells were incubated with 300 μL (0.8 μCi) of the incubation buffer (containing radiolabeled peptide [^177Lu]Lu-test peptide) for 1 hour at 37 C (Table 9). Post incubation, the cells were pelleted and washed 2 times using cold PBS+1% BSA. The supernatant and washes were combined and counted together as “unbound fraction” in a gamma counter. The cells were then resuspended in 300 μL of 1% PBS+1% BSA and counted in the gamma counter as cell associated fraction (or bound fraction).
as §4

human 4lg B7-H3 = biological target: T1, human 4lg B7-H3 (Homo sapiens, UniProt Q5ZPR3); assay: Affinity determination by surface plasmon resonance (SPR) to 4Ig B7-H3; settings: 4Ig B7-H3
T1 sequence (Q5ZPR3 29-534): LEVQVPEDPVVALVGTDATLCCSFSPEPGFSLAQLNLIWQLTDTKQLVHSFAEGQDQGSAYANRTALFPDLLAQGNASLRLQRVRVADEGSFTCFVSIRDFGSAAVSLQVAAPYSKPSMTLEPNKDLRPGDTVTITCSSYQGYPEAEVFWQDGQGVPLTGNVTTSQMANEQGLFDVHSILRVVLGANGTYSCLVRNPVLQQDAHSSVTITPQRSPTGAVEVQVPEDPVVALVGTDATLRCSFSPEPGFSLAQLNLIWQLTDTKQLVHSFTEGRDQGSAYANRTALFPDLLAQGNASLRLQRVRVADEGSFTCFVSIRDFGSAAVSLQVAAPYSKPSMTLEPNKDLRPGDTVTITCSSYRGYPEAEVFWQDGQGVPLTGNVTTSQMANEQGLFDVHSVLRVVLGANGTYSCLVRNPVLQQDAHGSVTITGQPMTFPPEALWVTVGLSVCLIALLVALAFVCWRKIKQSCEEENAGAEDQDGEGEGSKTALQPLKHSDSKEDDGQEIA

[3] = SPR KD—37° C., 37° C. flow cell temperature
[4] = read-out: SPR KD—37° C., 37° C. flow cell temperature
[5] = SPR KD—25° C., 25° C. flow cell temperature

Structure (SMILES): CC(=O)N[C@@H](CCC(C)C)C(=O)N[C@@H](Cc1ccc(O)cc1)C(=O)N[C@H]1CSSC[C@@H](C(=O)N[C@@H](Cc2cccc3ccccc23)C(=O)N[C@@H](Cc2ccccc2)C(=O)N[C@H](C(=O)N[C@H](CCCCNC(=O)CN2CCN(CC(=O)O)CCN(CC(=O)O)CCN(CC(=O)O)CC2)C(=O)O)C(C)(C)O)NC(=O)[C@H](Cc2ccc(O)cc2)NC(=O)[C@H](C(C)C)NC(=O)[C@H](CC(=O)O)NC(=O)[C@H](CC2CCOCC2)NC(=O)[C@H](CC2CCNCC2)NC(=O)CNC(=O)[C@H](C(C)(C)C)NC1=O [compound 436, Ac-hLeu-Y-C-Tbg-G-PipAla-ThpA-D-V-Y-C-1Nal-F-hydroxyVal-dLys(DOTA)-COOH] (Ac-[hLeu]YC[Tle]G[Ala(piperidin-4-yl)][Ala(4-THP)]DVYC[1Nal]F[Val(3-OH)][dK](DOTA)-OH; disulfide 3-11)
- % net internalization (Calu-6 cell line [1]): A (%≤25)
- % cell associated fraction (Calu-6 cell line [2]): B (25<%≤50)
- Kd (human 4lg B7-H3; [3]): < 1 nM

Structure (SMILES): CC(=O)N[C@@H](CCC(C)C)C(=O)N[C@@H](Cc1ccc(O)cc1)C(=O)N[C@H]1CSSC[C@@H](C(=O)N[C@@H](Cc2c[nH]c3ccc(F)cc23)C(=O)N[C@@H](Cc2ccccc2)C(=O)N[C@H](C(=O)N[C@H](CCCCNC(=O)[C@H](CCC(=O)O)NC(=O)CN2CCN(CC(=O)O)CCN(CC(=O)O)CCN(CC(=O)O)CC2)C(=O)O)C(C)(C)O)NC(=O)[C@H](Cc2ccc(O)cc2)NC(=O)[C@H](C(C)C)NC(=O)[C@H](CC(=O)O)NC(=O)[C@H](CC2CCOCC2)NC(=O)[C@H](CC2CCNCC2)NC(=O)CNC(=O)[C@H](C(C)(C)C)NC1=O [compound 428, Ac-hLeu-Y-C-Tbg-G-PipAla-ThpA-D-V-Y-C-5FW-F-hydroxyVal-dLys(Glu-DOTA)-COOH] (Ac-[hLeu]YC[Tle]G[Ala(piperidin-4-yl)][Ala(4-THP)]DVYC[Trp(5-F)]F[Val(3-OH)][dK]([Glu-DOTA])-OH; disulfide 3-11)
- % net internalization (Calu-6 cell line [1]): A (%≤25)
- % cell associated fraction (Calu-6 cell line [2]): B (25<%≤50)
- Kd (human 4lg B7-H3; [4]): < 1 nM

Structure (SMILES): CC(C)CC[C@H](NC(=O)CCOCCOCCOCCOCCOCCOCCOCCOCCNC(=O)CN1CCN(CC(=O)O)CCN(CC(=O)O)CCN(CC(=O)O)CC1)C(=O)N[C@@H](Cc1ccc(O)cc1)C(=O)N[C@H]1CSSC[C@@H](C(=O)N[C@@H](Cc2c[nH]c3ccc(F)cc23)C(=O)N[C@@H](Cc2ccccc2)C(=O)N2CCC[C@H]2C(N)=O)NC(=O)[C@H](Cc2ccc(O)cc2)NC(=O)[C@H](C(C)C)NC(=O)[C@H](CC(=O)O)NC(=O)[C@H](Cc2ccc(C(=O)O)cc2)NC(=O)[C@H](CCCCN)NC(=O)CNC(=O)[C@H](C(C)C)NC1=O [compound 294, DOTA-PEG8-hLeu-Y-C-V-G-K-4COOHPhe-D-V-Y-C-5FW-F-Pro-CONH2] ({DOTA-PEG8}-[hLeu]YCVGK[Phe(4-COOH)]DVYC[Trp(5-F)]FP-NH2; disulfide 3-11)
- % net internalization (Calu-6 cell line [1]): A (%≤25)
- % cell associated fraction (Calu-6 cell line [2]): A (%≤25)
- Kd (human 4lg B7-H3; [5]): 1 to 10 nM

Structure (SMILES): CC(=O)N[C@@H](CCC(C)C)C(=O)N[C@@H](Cc1ccc(O)cc1)C(=O)N[C@H]1CSSC[C@@H](C(=O)N[C@@H](Cc2c[nH]c3ccc(F)cc23)C(=O)N[C@@H](Cc2ccccc2)C(=O)N[C@H](C(N)=O)C(C)(C)O)NC(=O)[C@H](Cc2ccc(O)cc2)NC(=O)[C@H](C(C)C)NC(=O)[C@H](CC(=O)O)NC(=O)[C@H](CC2CCOCC2)NC(=O)[C@H](CCCCNC(=O)CN2CCN(CC(=O)O)CCN(CC(=O)O)CCN(CC(=O)O)CC2)NC(=O)CNC(=O)[C@H](C(C)(C)C)NC1=O [compound 338, Ac-hLeu-Y-C-Tbg-G-Lys(DOTA)-ThpA-D-V-Y-C-5FW-F-hydroxyVal-CONH2] (Ac-[hLeu]YC[Tle]GK(DOTA)[Ala(4-THP)]DVYC[Trp(5-F)]F[Val(3-OH)]-NH2; disulfide 3-11)
- % net internalization (Calu-6 cell line [1]): A (%≤25)
- % cell associated fraction (Calu-6 cell line [2]): B (25<%≤50)
- Kd (human 4lg B7-H3; [4]): 1 to 10 nM

Structure (SMILES): CC[C@H](C)[C@@H]1NC(=O)[C@@H](NC(=O)[C@H](Cc2ccc(O)cc2)NC(=O)[C@H](CCC(C)C)NC(C)=O)CSSC[C@@H](C(=O)N[C@@H](Cc2c[nH]c3ccc(F)cc23)C(=O)N[C@@H](Cc2ccccc2)C(=O)N[C@H](C(N)=O)C(C)(C)O)NC(=O)[C@H](Cc2ccc(O)cc2)NC(=O)[C@H](C(C)C)NC(=O)[C@H](CC(=O)O)NC(=O)[C@H](Cc2ccncc2)NC(=O)[C@H](CCCCNC(=O)CN2CCN(CC(=O)O)CCN(CC(=O)O)CCN(CC(=O)O)CC2)NC(=O)CNC1=O [compound 230, Ac-hLeu-Y-C-Ile-G-Lys(DOTA)-4PyA-D-V-Y-C-5FW-F-hydroxyVal-CONH2] (Ac-[hLeu]YCIGK(DOTA)[4Pal]DVYC[Trp(5-F)]F[Val(3-OH)]-NH2; disulfide 3-11)
- % net internalization (Calu-6 cell line [1]): A (%≤25)
- % cell associated fraction (Calu-6 cell line [2]): B (25<%≤50)
- Kd (human 4lg B7-H3; [5]): < 1 nM

Structure (SMILES): CC(=O)N[C@@H](CCC(C)C)C(=O)N[C@@H](Cc1ccc(O)cc1)C(=O)N[C@H]1CSSC[C@@H](C(=O)N[C@@H](Cc2c[nH]c3ccc(F)cc23)C(=O)N[C@@H](Cc2ccccc2)C(=O)N[C@H](C(=O)N[C@H](C)C(N)=O)C(C)(C)O)NC(=O)[C@H](Cc2ccc(O)cc2)NC(=O)[C@H](C(C)C)NC(=O)[C@H](CC(=O)O)NC(=O)[C@H](CC2CCN(C(=O)CCOCCOCCOCCOCCNC(=O)CN3CCN(CC(=O)O)CCN(CC(=O)O)CCN(CC(=O)O)CC3)CC2)NC(=O)[C@H](CCCCN)NC(=O)CNC(=O)[C@H](C(C)(C)C)NC1=O [compound 385, Ac-hLeu-Y-C-Tbg-G-K-Pip(PEG4-DOTA)Ala-D-V-Y-C-5FW-F-hydroxyVal-dAla-CONH2] (Ac-[hLeu]YC[Tle]GK[Ala(piperidin-4-yl)]([PEG4-DOTA])DVYC[Trp(5-F)]F[Val(3-OH)][dA]-NH2; disulfide 3-11)
- % net internalization (Calu-6 cell line [1]): B (25<%≤50)
- % cell associated fraction (Calu-6 cell line [2]): C (%>50)
- Kd (human 4lg B7-H3; [4]): < 1 nM

Structure (SMILES): CC(=O)N[C@@H](CCC(C)C)C(=O)N[C@@H](Cc1ccc(O)cc1)C(=O)N[C@H]1CSSC[C@@H](C(=O)N[C@@H](Cc2c[nH]c3ccc(F)cc23)C(=O)N[C@@H](Cc2ccccc2)C(=O)N[C@H](C(=O)N[C@H](CCCCNC(=O)COCCOCCOCCOCCNC(=O)CN2CCN(CC(=O)O)CCN(CC(=O)O)CCN(CC(=O)O)CC2)C(=O)O)C(C)(C)O)NC(=O)[C@H](Cc2ccc(O)cc2)NC(=O)[C@H](C(C)C)NC(=O)[C@H](CC(=O)O)NC(=O)[C@H](CC2CCOCC2)NC(=O)[C@H](CCCCN)NC(=O)CNC(=O)[C@H](C(C)(C)C)NC1=O [compound 310, Ac-hLeu-Y-C-Tbg-G-K-ThpA-D-V-Y-C-5FW-F-hydroxyVal-dLys(PEG4-DOTA)-COOH] (Ac-[hLeu]YC[Tle]GK[Ala(4-THP)]DVYC[Trp(5-F)]F[Val(3-OH)][dK](X2)-OH; disulfide 3-11)
- % net internalization (Calu-6 cell line [1]): B (25<%≤50)
- % cell associated fraction (Calu-6 cell line [2]): C (%>50)
- Kd (human 4lg B7-H3; [5]): < 1 nM
- Kd (human 4lg B7-H3; [3]): < 1 nM
